Experimental data as given in patent US20240108601A1, “TREATMENT OF MENTAL DISORDERS” (GH Research Ireland Limited, priority 2022, published 2024).
Read-outs that look alike come from different tables or passages of the source.

Key:
[1] = test system: human hepatocytes; assay: Metabolite identification in human hepatocyte suspension; conditions: 5-MeO-DMT free base 10 μM, incubated up to 120 minutes
Protocol: For incubations with cryopreserved hepatocytes, the 2 mM stock solution was diluted with Leibovitz L-15 medium to a concentration of 20 μM or 2 μM. An aliquot (250 μL) of the 20 μM and 2 μM test substance formulations was added to each hepatocyte incubation sample (250 μL), as appropriate, so that the final test substance concentration in the incubations was 10 μM or 1 μM, respectively, and incubations contained less than 1% (v/v) solvent.
Incubations were performed at ca. 37° C. in a shaking water bath (total incubation volume 0.5 mL). For 1 μM, incubations were terminated after 0, 5, 10, 20, 30, 60 and 120 minutes, by the addition of ice-cold acetonitrile (0.5 mL).
The samples were vortex mixed and centrifuged at ca 13,000 rpm for 10 minutes at room temperature. Following centrifugation, the protein-free supernatants were removed for analysis.
Blank control incubations were carried out with Leibovitz L-15 medium in place of the test substance. No cells control samples were performed with Leibovitz L-15 medium in place of hepatocytes. Aliquots of the blank control samples were taken at 120 minutes, while no cells control samples were taken at 0, 30 and 120 for 1 μM incubations and at 0 and 120 minutes for 10 μM incubations.
All 1 μM incubations were performed in duplicate, while all 10 μM incubations were performed in singlet. All samples were stored at −80° C. (nominal) prior to analysis.
Prior to sample analysis a 100 μL aliquot of each sample was evaporated to near dryness under a steady stream of nitrogen at room temperature, and subsequently reconstituted in 50 μL of mobile phase A (0.1% formic acid in water). Each sample (0, 30 and 120-minute, 10 μM) was analysed using accurate mass LC-MS to determine relative levels of parent compound at each time-point, and determine the profile of metabolites formed. Appropriate blank and control samples were also analysed. The 10 and 60-minute, 10 μM incubation samples were not analysed and were stored at −80° C. (nominal). […]

[2] = test system: human hepatocytes (Hμrel HumanPool co-culture); assay: Metabolic stability in Hμrel human hepatocyte co-culture
[3] = LC-MS/MS of 5-MeO-DMT, bufotenine and 5-MIAA in urine, serum and breastmilk of lactating PPD patient; infant exposure estimates; conditions: for Breastmilk concentration / Serum concentration / Urine concentration: second patient
From the text: When determining the potential impact of maternal drug administration on a breastfed infant, it is standard practice to calculate the Relative Infant Dose (RID) (Bennett, P. N., and L. J. Notarianni. “Risk from drugs in breast milk: an analysis by relative dose.” Br J Clin Pharmacol 42.5 (1996): P673-4). The RID is the dosage (in μg/kg/day) the infant is exposed to by the intake of breast milk, divided by the dosage (in μg/kg/day) the mother receives.
Using estimates for daily intake of breast milk and the number of feeds as well as the measured breast milk concentrations the exposure of the infant can be determined.
For example, a published estimate for daily intake of breast milk as a function of infant weight is 150 ml/kg/day. To model the exposure, it is assumed that an infant of 5 kg is fed three times over 24 hours, receiving 250 ml breast milk each time.
The second patient was lactating, and, per the clinical trial protocol, breastmilk samples were collected pre-dosing and at multiple timepoints after administration of the last dose. […] Similar analyses were carried out on patient serum and urine samples.

[4] = test system: human plasma protein; assay: Plasma binding of 5-MIAA; type: in vitro ADME
Protocol: (§1) Binding to human plasma protein was determined. Reported are the unbound fraction (fu) for three replicates as well as the mean unbound fraction, the standard deviation and the mean % recovery (Table 8).

[5] = Plasma binding of 5-MIAA; type: in vitro ADME; conditions: for fraction unbound: human, plasma
Protocol: as §1

[6] = 5 kg infant, three feeds of 250 ml

COc1ccc2[nH]cc(CC[N+](C)(C)[O-])c2c1 [5-MeO-DMT-N-oxide]
Relative Proportion of compounds identified [1]: 1%

5-Methoxyindole acetic acid [5-MIAA]
Disappearance with stromal cell controls ([2]; 0-72 h): no disappearance
Remaining abundance after 72h ([2]; hepatocytes, 1 and 10 μM): 75-82%
In vitro intrinsic clearance ([2]; human hepatocytes, 1 μM): 0.15 μl/min/million cells
DID of 5-MIAA per kg [3, 6]: 0.001377 mg/kg/day
DID, total exposure of the infant to 5-MIAA [3, 6]: 0.006886 mg/day
Breastmilk concentration ([3]; 1.0 hrs after last dose): 13945.2 pg/mL
Serum concentration ([3]; 1.0 hrs after last dose): 263.092 ng/mL
Breastmilk concentration ([3]; 2.5 hrs after last dose): 13240.9 pg/mL
Serum concentration ([3]; 2.5 hrs after last dose): 101.9947 ng/mL
Breastmilk concentration ([3]; 8.5 hrs after last dose): 359.4 pg/mL
Urine concentration ([3]; 8.5 hrs after last dose): 291651 pg/mL
Breastmilk concentration ([3]; 24.0 hrs after last dose): 35.5 pg/mL
Serum concentration ([3]; 24.0 hrs after last dose): 0.2706 ng/mL
Urine concentration ([3]; 24.0 hrs after last dose): 18649 pg/mL
Breastmilk concentration ([3]; 120.0 hrs after last dose): BLQ (Below limit of quantification. The lower limit of quantification is 25 pg/ml for both 5-MeO-DMT and 5-MIAA in both serum and breastmilk; it is 25 pg/ml in urine for 5-MeO-DMT and 250 pg/ml for 5-MIAA in urine.)
Serum concentration ([3]; 120.0 hrs after last dose): 0.0671 ng/mL
Urine concentration ([3]; 120.0 hrs after last dose): 9444 pg/mL
Breastmilk concentration ([3]; −24.0 hrs (pre-dosing)): BLQ (Below limit of quantification. The lower limit of quantification is 25 pg/ml for both 5-MeO-DMT and 5-MIAA in both serum and breastmilk; it is 25 pg/ml in urine for 5-MeO-DMT and 250 pg/ml for 5-MIAA in urine.)
Serum concentration ([3]; −24.0 hrs (pre-dosing)): 0.051 ng/mL
Urine concentration ([3]; −24.0 hrs (pre-dosing)): 8113 pg/mL
Mean % Recovery [4]: 81.4%
Plasma binding (mean fraction unbound) [4]: ~50%
Unbound fraction (fu), Replicate 1 [4]: 0.499
Unbound fraction (fu), Replicate 2 [4]: 0.462
Unbound fraction (fu), Replicate 3 [4]: 0.544
Mean fu ([4]; three replicates): 0.502

CC(=O)CC(c1ccccc1)c1c(O)c2ccccc2oc1=O (centres unmarked) [Warfarin, reference compound]
recovery ([5]; human plasma): 78.1%
fraction unbound ([5]; read-out: Unbound fraction (fu), Replicate 1): 0.0418
fraction unbound ([5]; read-out: Unbound fraction (fu), Replicate 2): 0.0356
fraction unbound ([5]; read-out: Unbound fraction (fu), Replicate 3): 0.0358
fraction unbound ([5]; three replicates, read-out: Mean fu): 0.0377
